Experimental data reported in patent US11332716B2, “Methods and compositions for producing pancreatic beta cells” (The Regents of the University of California, priority 2015, dated 2022).

Tested on: PDX1+/NKX6.1+ pancreatic progenitor cells
Assay: Direct differentiation of PDX1+/NKX6.1+ progenitors to pancreatic beta cells
Assay type: cell-based, human
Details: alone; does not maintain any progenitor expression
Experimental: Variations on the direct differentiation method disclosed herein (see, e.g., Examples 13 and 17) were also developed that yielded efficient and cost-effective production of functional pancreatic beta cells from pluripotent stem cells. Illustrated schematically in FIG. 24, one method according to the disclosure provides embryonic stem cells (e.g., human embryonic stem cells) that were exposed to retinoic acid and incubated for a sufficient time to see expression of PDX1. During this time, the cells were not exposed to bone morphogenetic protein (BMP), which can lead to precocious endocrine differentiation and, ultimately, the production of non-functional polyhormonal cells. PDX1^+ cells were then exposed to 50 ng/ml epidermal growth factor (EGF) and 50 ng/ml keratinocyte growth factor (KGF or K) in DMEM basal media containing IX GLUTAMAX™ (Invitrogen), IX non-essential amino acids (Invitrogen) and serum-free IX B27supplement (Life Technologies) for an extended period of 24-48 hours under the culture conditions disclosed herein. The extended incubation of pancreatic progenitor PDX1^+ cells in the absence of BMP led to the efficient production of […] pancreatic progenitor cells. The PDX1^+NKX6.1^+cells were then incubated in an optimized combination of growth factors to induce NGN3 expression while maintaining expression of PD1 and NKX6.1. […]

SMILES: C[C@H](NC(=O)Cc1cc(F)cc(F)c1)C(=O)N[C@@H]1C(=O)N(C)c2ccccc2-c2ccccc21 [gamma secretase inhibitor XX]
- endocrine differentiation: induces endocrine differentiation efficiently
